In patent publication US9499509B2, “Dihydrochalcone derivatives and their use as antibiotic agents” (UNIVERSITÉ DU QUÉBEC À CHICOUTIMI, priority 2012, dated 2016):
≈ marks a conversion by molar mass, not a printed value.

How the values were obtained:
[1] = tested on: S. aureus wild type strain (ATCC 25923); assay: Antibiotic assay (absorption 660 nm, Example 2), S. aureus wild type; type: cell-based, Staphylococcus aureus; settings: for MIC: S. aureus WT (ATCC 25923); for S. aureus WT ATCC 25923 (toxicity on bacteria): Table 7, same values as MIC of Table 6
Experimental: (§1) Antibiotic agents. Gentamicin sulfate was provided by Calbiochem. Chloramphenicol was provided by Sigma-Aldrich.
(§2) Antibiotic assay. […] The bacteria strains were inoculated in nutrients broth. […] All bacteria were plated in nutrients broth at a concentration of 450 000 bacteria/m L.
(§3) Compounds IV to XXI were diluted in dimethylsulfoxide. […] The compounds were tested at 8 different concentrations.
(§4) Each well contained: 100 μL of bacteria, 100 μL of the compounds tested. The plates were incubated at 37° C. for 6 h. The absorption was read using a Varioskan flash multimode Reader™ (Thermo Scientific) at 660 nm.
(§5) MRSA. Ten (10) strains of MRSA obtained as described above were tested along with an S. aureus wild type (WT) strain (ATCC 25923).

WS-1 cell lines = assay: Cytotoxicity assay on WS-1 (Example 2); type: cell-based; parameters: unit not given here; settings: Table 7; WS-1, 48 h
Experimental: Cytotoxicity assay. […] The WS-1 cell lines were provided by ATCC. […] The compounds tested were then added at 8 different concentrations. […] In Table 7, the therapeutic indexes of compounds IV to XXI are presented.

MRSA strains = assay: Antibiotic assay (absorption 660 nm, Example 2), MRSA strains; type: cell-based, Staphylococcus aureus
Experimental: as §1, §2, §3, §4, §5

| SMILES | MIC [1] [µM] | MIC (MRSA strains; MRSA 1) [µM] | MIC (MRSA strains; MRSA 2) [µM] | MIC (MRSA strains; MRSA 3) [µM] | MIC (MRSA strains; MRSA 4) [µM] | MIC (MRSA strains; MRSA 5) [µM] | MIC (MRSA strains; MRSA 6) [µM] | MIC (MRSA strains; MRSA 7) [µM] | MIC (MRSA strains; MRSA 8) [µM] | MIC (MRSA strains; MRSA 9) [µM] | MIC (MRSA strains; MRSA 10) [µM] | S. aureus WT ATCC 25923 (toxicity on bacteria) [1] | WS-1 (toxicity on normal cells, fibroblast) (WS-1 cell lines) |
| --- | --- | --- | --- | --- | --- | --- | --- | --- | --- | --- | --- | --- | --- |
| O=C(CCc1ccccc1)c1c(O)cc(O)c2c1OC(c1ccc(O)cc1)C(O)C2 (racemic) [XVI] | 5.9 ± 0.3 (≈ 2.4 µg/mL) | 5.6 ± 0.5 (≈ 2.28 µg/mL) | 4.7 ± 0.4 (≈ 1.91 µg/mL) | 5.1 ± 0.3 (≈ 2.07 µg/mL) | 5.7 ± 0.4 (≈ 2.32 µg/mL) | 4.1 ± 0.6 (≈ 1.67 µg/mL) | 5.4 ± 0.7 (≈ 2.19 µg/mL) | 3.5 ± 0.3 (≈ 1.42 µg/mL) | 5.3 ± 0.6 (≈ 2.15 µg/mL) | 4.8 ± 0.2 (≈ 1.95 µg/mL) | 3.3 ± 0.1 (≈ 1.34 µg/mL) | 5.9 ± 0.3 | >50 |
| COc1ccc(CCC(=O)c2c(O)cc(O)c3c2OC(c2ccc(O)cc2)C(O)C3)cc1 (racemic) [XIX] | 2.5 ± 0.1 (≈ 1.09 µg/mL) | 2.6 ± 0.1 (≈ 1.13 µg/mL) | 2.4 ± 0.1 (≈ 1.05 µg/mL) | 4.3 ± 0.4 (≈ 1.88 µg/mL) | 2.9 ± 0.6 (≈ 1.27 µg/mL) | 3.1 ± 0.6 (≈ 1.35 µg/mL) | 2.8 ± 0.2 (≈ 1.22 µg/mL) | 2.6 ± 0.1 (≈ 1.13 µg/mL) | 2.7 ± 0.2 (≈ 1.18 µg/mL) | 3.0 ± 0.3 (≈ 1.31 µg/mL) | 2.56 ± 0.04 (≈ 1.12 µg/mL) | 2.5 ± 0.1 | 8.2 ± 1.0 |
| O=C(CCc1ccccc1)c1c(O)cc2c(c1O)CC(O)C(c1ccc(O)cc1)O2 (stereo not shown) [XIV] | 10.9 ± 0.6 (≈ 4.43 µg/mL) | 21.9 ± 0.2 (≈ 8.9 µg/mL) | 25 ± 2 (≈ 10.2 µg/mL) | 18 ± 1 (≈ 7.32 µg/mL) | 22 ± 2 (≈ 8.94 µg/mL) | 20 ± 2 (≈ 8.13 µg/mL) | 20 ± 3 (≈ 8.13 µg/mL) | 18.5 ± 0.4 (≈ 7.52 µg/mL) | 23.4 ± 1.0 (≈ 9.51 µg/mL) | 20 ± 2 (≈ 8.13 µg/mL) | 11.4 ± 0.6 (≈ 4.63 µg/mL) | 10.9 ± 0.6 | >50 |
| COc1cc(O)c(C(=O)CCc2ccc(O)cc2)c2c1CCC(c1ccc(O)cc1)O2 (racemic) [X] | 5.3 ± 0.6 (≈ 2.23 µg/mL) | 5.2 ± 0.4 (≈ 2.19 µg/mL) | 5.7 ± 0.4 (≈ 2.4 µg/mL) | 4 (≈ 1.68 µg/mL) | 3 (≈ 1.26 µg/mL) | 4 ± 2 (≈ 1.68 µg/mL) | 9 ± 1 (≈ 3.78 µg/mL) | 5.3 ± 0.2 (≈ 2.23 µg/mL) | – | 5.3 ± 0.4 (≈ 2.23 µg/mL) | 5.6 ± 0.5 (≈ 2.35 µg/mL) | 5.3 ± 0.6 | 16 ± 4 |
| COc1ccc(CCC(=O)c2c(O)cc(O)c3c2O[C@@H](c2ccc(O)cc2)CC3)cc1 [IX] | 8.0 ± 0.3 (≈ 3.36 µg/mL) | 7.7 ± 0.3 (≈ 3.24 µg/mL) | 9 ± 1 (≈ 3.78 µg/mL) | 6.25 ± 0.06 (≈ 2.63 µg/mL) | 6.7 ± 0.2 (≈ 2.82 µg/mL) | 6.9 ± 0.4 (≈ 2.9 µg/mL) | 7.1 ± 0.9 (≈ 2.99 µg/mL) | 5.2 ± 0.4 (≈ 2.19 µg/mL) | 4.9 ± 0.2 (≈ 2.06 µg/mL) | 3.7 ± 0.2 (≈ 1.56 µg/mL) | 7.5 ± 0.7 (≈ 3.15 µg/mL) | 8.0 ± 0.3 | >50 |

Second part, led by results:

| MIC [1] [µM] | MIC (MRSA strains; MRSA 1) [µM] | MIC (MRSA strains; MRSA 2) [µM] | MIC (MRSA strains; MRSA 3) [µM] | MIC (MRSA strains; MRSA 4) [µM] | MIC (MRSA strains; MRSA 5) [µM] | MIC (MRSA strains; MRSA 6) [µM] | MIC (MRSA strains; MRSA 7) [µM] | MIC (MRSA strains; MRSA 8) [µM] | MIC (MRSA strains; MRSA 9) [µM] | MIC (MRSA strains; MRSA 10) [µM] | SMILES | S. aureus WT ATCC 25923 (toxicity on bacteria) [1] | WS-1 (toxicity on normal cells, fibroblast) (WS-1 cell lines) |
| --- | --- | --- | --- | --- | --- | --- | --- | --- | --- | --- | --- | --- | --- |
| 0.58 ± 0.02 (≈ 0.244 µg/mL) | 0.55 ± 0.07 (≈ 0.231 µg/mL) | 0.65 ± 0.03 (≈ 0.273 µg/mL) | 1.10 ± 0.07 (≈ 0.463 µg/mL) | 0.64 ± 0.02 (≈ 0.269 µg/mL) | 0.60 ± 0.01 (≈ 0.252 µg/mL) | 0.76 ± 0.04 (≈ 0.32 µg/mL) | 0.57 ± 0.06 (≈ 0.24 µg/mL) | 0.641 ± 0.01 (≈ 0.27 µg/mL) | 0.86 ± 0.03 (≈ 0.362 µg/mL) | 0.7 ± 0.1 (≈ 0.294 µg/mL) | COc1cc(O)c(C(=O)CCc2ccc(O)cc2)c2c1CC[C@H](c1ccc(O)cc1)O2 [XII] | 0.58 ± 0.02 | >50 |
| 2.2 ± 0.2 (≈ 0.925 µg/mL) | 2.9 ± 0.1 (≈ 1.22 µg/mL) | 2.5 ± 0.1 (≈ 1.05 µg/mL) | 1.7 ± 0.1 (≈ 0.715 µg/mL) | 2.4 ± 0.2 (≈ 1.01 µg/mL) | 2.0 ± 0.1 (≈ 0.841 µg/mL) | 2.7 ± 0.1 (≈ 1.14 µg/mL) | 2.13 ± 0.02 (≈ 0.896 µg/mL) | 2.2 ± 0.5 (≈ 0.925 µg/mL) | 2.5 ± 0.2 (≈ 1.05 µg/mL) | 1.2 ± 0.2 (≈ 0.505 µg/mL) | COc1ccc(CCC(=O)c2c(O)cc(O)c3c2OC(c2ccc(O)cc2)CC3)cc1 (racemic) [VII] | 2.2 ± 0.2 | 26 |
| 13 ± 1 (≈ 5.28 µg/mL) | 24.3 ± 0.9 (≈ 9.88 µg/mL) | 27 ± 1 (≈ 11 µg/mL) | 29 ± 3 (≈ 11.8 µg/mL) | 22 ± 2 (≈ 8.94 µg/mL) | 18 ± 2 (≈ 7.32 µg/mL) | 18.9 ± 0.4 (≈ 7.68 µg/mL) | 20 ± 1 (≈ 8.13 µg/mL) | 17 ± 2 (≈ 6.91 µg/mL) | 30 ± 1 (≈ 12.2 µg/mL) | 7.8 ± 0.3 (≈ 3.17 µg/mL) | O=C(CCc1ccccc1)c1c(O)cc2c(c1O)CC(O)C(c1ccc(O)cc1)O2 (stereo not shown) [XV] | 13 ± 1 | >50 |
